This note sets out measurements from patent US6215002A, “Pyrrolopyrrolone derivatives as inhibitors of neutrophil elastase” (priority 1996, dated 2001).

pIC50: −log10 of the molar value. Structures can show the parent of a compound that is named as a salt.

The target of assay [1] is T1, human neutrophil elastase (Homo sapiens, UniProt P08246).
T1 sequence (P08246 30-267): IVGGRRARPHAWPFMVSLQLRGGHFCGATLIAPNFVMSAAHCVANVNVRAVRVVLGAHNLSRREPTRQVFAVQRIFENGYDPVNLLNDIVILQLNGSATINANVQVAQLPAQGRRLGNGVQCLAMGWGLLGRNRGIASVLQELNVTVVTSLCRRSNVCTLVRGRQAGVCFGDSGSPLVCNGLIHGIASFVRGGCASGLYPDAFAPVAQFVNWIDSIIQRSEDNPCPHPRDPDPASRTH
In words: In vitro assay of human neutrophil elastase (HNE). It counts as biochemical. As to conditions: 118 nM purified human neutrophil elastase, pH 8.6, 15 min incubation at 30° C., MeO-succinyl-alanyl-alanyl-prolyl-valyl-p-nitroanilide substrate; read-out: HNE IC50. The method in brief:
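Residual activity was taken as the 10 min rate of absorbance rise at 405 nm after adding 0.6 mM MeO-succinyl-AAPV-p-nitroanilide. Curve fitting of activity against concentration gave IC50.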

In the next assay the test system is Intracellular elastase. In words: Oral in vivo model using IL-8 induced lung infiltrates for the assessment of intracellular elastase inhibition (hamster test). As to conditions: effective dose of less than 40 mg/kg, IL-8 intratracheal. Here is the method: An Oral in vivo Model Using IL-8 Induced Lung Infiltrates For the Assessment of Intracellular Elastase Inhibition
Adult hamsters (100-150 g) are randomised into groups (n=4) and fasted overnight. Under gaseous anaesthetic (3% isofluorane) animals are dosed orally with 1 mL/100 g water as vehicle or containing predissolved compounds. Either at the same time, or subsequently under anaesthetic, animals are dosed intratracheally with 1 ug recombinant human IL-8 in 100 uL sterile saline. Six hours after IL-8 dosing animals are sacrificed using intrapertoneal pentobarbitone. The lungs are ravaged with 2×2.5 mL sterile saline and femurs are removed by dissection.
Intracellular elastase is prepared from neutrophils collected by lavage and from femoral bone marrow. This is achieved by sonication of the neutrophils and centrifugation to yield intracellular granules. These are disrupted by freeze/thawing and sonication. Elastase and myeloperoxidase assays are then performed on these samples to assess the efficacy of the compounds and to normalise for neutrophil recovery.

On to `CC(C)NCc1ccc(C(=O)N2CC[C@H]3[C@H]2[C@@H](C(C)C)C(=O)N3S(C)(=O)=O)cc1.Cl` (relative stereo) [Example 179, rel-(3R,3aR,6aS)-3-Isopropyl-4-[4-(isopropylamino-methyl)-benzoyl]-1-methanesulfonyl-hexahydro-pyrrolo[3,2-b]pyrrol-2-one hydrochloride], for which the pIC50 (as a rule, the negative decadic logarithm of the IC50, by convention in mol/L) in assay [1] is 7.33. In the assay on Intracellular elastase, the duration of effect result was “at least 6 hours”.
Taken in the same sequence, the figures for `CC(=O)N1CCN(C/C=C/C(=O)N2CC[C@H]3[C@H]2[C@@H](C(C)C)C(=O)N3S(C)(=O)=O)CC1.Cl` (relative stereo) [Example 138, rel-(3R,3aR,6aS)-4-[4-(4-Acetyl-piperazin-1-yl)-but-2E-enoyl]-3-isopropyl-1-methanesulfonyl-hexahydro-pyrrolo[3,2-b]pyrrol-2-one hydrochloride] were 7.38 and “at least 6 hours”.
With `CCN(CC)C/C=C/C(=O)N1CC[C@H]2[C@H]1[C@@H](C(C)C)C(=O)N2S(C)(=O)=O` (relative stereo) [Example 145, rel-(3R,3aR,6aS)-4-Diethylamino-but-2E-enoyl)-3-isopropyl-1-methanesulfonyl-hexahydro-pyrrolo[3,2-b]pyrrol-2-one hydrochloride], in assay [1], the pIC50 was 7.41. Besides, the duration of effect result in the assay with Intracellular elastase is given as “at least 6 hours”.
The corresponding values for `CC(C)[C@H]1C(=O)N(S(C)(=O)=O)[C@H]2CCN(C(=O)/C=C/CN(C(C)C)C(C)C)[C@H]12.Cl` (relative stereo) [Example 144, rel-(3R,3aR,6aS)-4-(4-Diisopropylamino-but-2E-enoyl)-3-isopropyl-1-methanesulfonyl-hexahydro-pyrrolo[3,2-b]pyrrol-2-one hydrochloride] are 7.15 and “at least 6 hours”.
In the case of `CCC[C@H]1C(=O)N(S(C)(=O)=O)[C@H]2CCN(C(=O)CCCCCN3CCOCC3)[C@H]12.O=C(O)C(O)C(O)C(=O)O` (relative stereo) [Example 58, rel-(3R,3aR,6aS)-1-Methanesulfonyl-4-(6-morpholin-4-yl-hexanoyl)-3-propylhexahydro-pyrrolo[3,2-b]pyrrol-2-one 2,3-dihydroxysuccinate], in assay [1], the pIC50 was 7.14. Further, the duration of effect entry with Intracellular elastase is given as “at least 6 hours”.
For `CC(C)[C@H]1C(=O)N(S(C)(=O)=O)[C@H]2CCN(C(=O)CCCCCN3CCCCCC3)[C@H]12` (relative stereo) [Example 60, rel-(3R,3aR,6aS)-4-(6-Azepin-1-yl-hexanoyl-3-isopropyl-1-methanesulfonyl)-hexahydro-pyrrolo[3,2-b]pyrrol-2-one hydrochloride], the pIC50 in assay [1] was 7.33. Besides, in the assay on Intracellular elastase, the duration of effect result was “at least 6 hours”.
For the compound `CC(C)[C@H]1C(=O)N(S(C)(=O)=O)[C@H]2CCN(C(=O)c3cccc(CN(C)C)c3)[C@H]12` (relative stereo) [Example 253, rel-(3R3aR,6aS)-4-(3-Dimethylaminomethyl-benzoyl)-3-isopropyl-1-methanesulfonyl-hexahydro-pyrrolo[3,2-b]pyrrol-2-one hydrochloride], the pIC50 in assay [1] was 7.12. The duration of effect entry in the assay on Intracellular elastase is “at least 6 hours”.
As for `CCC[C@H]1C(=O)N(S(=O)(=O)c2ccc3ccccc3c2)[C@H]2CCN(C(=O)CCN3CCCCC3)[C@H]12` (relative stereo) [Example 2, rel-(3R,3aR,6aS)-1-(Naphthalene-2-sulfonyl)-4-(3-piperidin-1-yl-propionyl)-3-propyl-hexahydro-pyrrolo[3,2-b]pyrrol-2-one hydrochloride], the pIC50 in assay [1] is 6.86. The duration of effect entry in the assay with Intracellular elastase is reported as “at least 6 hours”.
The corresponding values for `CC(C)[C@H]1C(=O)N(S(C)(=O)=O)[C@H]2CCN(C(=O)/C=C/c3ccc(CN4CCCCC4)cc3)[C@H]12.Cl` (relative stereo) [Example 158, rel-(3R,3aR,6aS)-3-Isopropyl-1-methanesulfonyl-4-[3-(4-piperidin-1-ylmethyl-phenyl)-(E)-acryloyl]-hexahydro-pyrrolo[3,2-b]pyrrol-2-one hydrochloride] are 7.72 and “at least 6 hours”.
As to `CC(C)[C@H]1C(=O)N(S(C)(=O)=O)[C@H]2CCN(C(=O)c3ccc(CNC4CC4)o3)[C@H]12` (relative stereo) [Example 252, rel-(3R,3aR,6aS)-4-(5-Cyclolpropylaminomethyl-furan-2-carbonyl)-3-isopropyl-1-methanesulfonyl-hexahydro-pyrrolo[3,2-b]pyrrol-2-one hydrochloride], the pIC50 in assay [1] was 7.85. The duration of effect entry in the assay on Intracellular elastase is given as “at least 6 hours”.
For the compound `CCCN(C)Cc1ccc(C(=O)N2CC[C@H]3[C@H]2[C@@H](C(C)C)C(=O)N3S(C)(=O)=O)cc1.Cl` (relative stereo) [Example 181, rel-(3R,3aR,6aS)-3-Isopropyl-1-methanesulfonyl-4-{4-[(methyl-propyl-amino)-methyl]-benzoyl}-hexahydro-pyrrolo[3,2-b]pyrrol-2-one hydrochloride], the negative-log IC50 (pIC50) in assay [1] is 7.38. In the assay with Intracellular elastase, the duration of effect result is reported as “at least 6 hours”.
As to `CCCN(C)C/C=C/C(=O)N1CC[C@H]2[C@H]1[C@@H](C(C)C)C(=O)N2S(C)(=O)=O.Cl` (relative stereo) [Example 141, rel-(3R,3aR,6aS)-3-Isopropyl-1-methanesulfonyl-4-[4-(methyl-propyl-amino)-but-2E-enoyl]-hexahydro-pyrrolo[3,2-b]pyrrol-2-one hydrochloride], in assay [1], the negative-log IC50 (pIC50) was 6.75. Further, the duration of effect result in the assay on Intracellular elastase is listed as “at least 6 hours”.
As to `CC(C)[C@H]1C(=O)N(S(C)(=O)=O)[C@H]2CCN(C(=O)c3ccc(CN4C(C)CCCC4C)cc3)[C@H]12.Cl` (relative stereo) [Example 200, rel-(3R,3aR,6aS)-4-[4-(2,6-Dimethyl-piperidin-1-ylmethyl)-benzoyl]-3-isopropyl-1-methanesulfonyl-hexahydropyrrolo[3,2-b]pyrrol-2-one hydrochloride], in assay [1], the pIC50 is 7.28. Besides, the duration of effect result with Intracellular elastase is listed as “at least 6 hours”.
As for `CC(C)[C@H]1C(=O)N(S(C)(=O)=O)[C@H]2CCN(C(=O)c3ccc(CN(C(C)C)C(C)C)cc3)[C@H]12` (relative stereo) [Example 201, rel-(3R,3aR,6aS)-4-{4-(Diisopropylamino)-methy]benzoyl}3-isopropyl-1-methanesulfonyl-hexahydro-pyrrolo[3,2-b]pyrrol-2-one hydrochloride], in assay [1], the pIC50 was 7.34. Further, the duration of effect entry with Intracellular elastase is on record as “at least 6 hours”.
On to `CCN(CC)Cc1ccc(C(=O)N2CC[C@H]3[C@H]2[C@@H](C(C)C)C(=O)N3S(C)(=O)=O)cc1.Cl` (relative stereo) [Example 182, rel-(3R,3aR,6aS)-4-(4-Diethylaminomethyl-benzoyl)-3-isopropyl-1-methanesulfonyl-hexahydro-pyrrolo[3,2-b]pyrrol-2-one hydrochloride], for which the pIC50 in assay [1] was 7.37. In addition, the duration of effect entry in the assay on Intracellular elastase is “at least 6 hours”.
The corresponding values for `CC(C)[C@H]1C(=O)N(S(C)(=O)=O)[C@H]2CCN(C(=O)c3cccc(CN4CCCCC4)c3)[C@H]12` (relative stereo) [Example 192, rel-(3R,3aR,6aS)-3-Isopropyl-1-methanesulfonyl-4-(3-piperidin-1-ylmethyl-benzoyl)-hexahydro-pyrrolo]3,2-b]pyrrol-2-one hydrochloride] are 7.21 and “at least 6 hours”.
With `CC(C)NC/C=C/C(=O)N1CC[C@H]2[C@H]1[C@@H](C(C)C)C(=O)N2S(C)(=O)=O.Cl` (relative stereo) [Example 151, rel-(3R,3aR,6aS)-3-Isopropyl-4-(4-isopropylamino-but-2E-enoyl)-1-methanesulfonyl-hexahydro-pyrrolo[3,2-b]pyrrol-2-one hydrochloride], the pIC50 in assay [1] is 7.07. Also, in the assay with Intracellular elastase, the duration of effect entry is reported as “at least 6 hours”.
Regarding `CCC[C@H]1C(=O)N(S(C)(=O)=O)[C@H]2CCN(S(=O)(=O)c3ccc(NC(C)=O)cc3)[C@H]12` (relative stereo) [Example 63, rel-N-[4-(4-Methanesulfonyl-5-oxo-6R-propyl-hexahydro-(3aS,6aR)-pyrrolo[3,2-b]pyrrole-1-sulfonyl)phenyl]-acetamide], the pIC50 in assay [1] was 8.22. Besides, the duration of effect entry in the assay with Intracellular elastase is recorded as “at least 6 hours”.
In the case of `CC(C)[C@H]1C(=O)N(S(C)(=O)=O)[C@H]2CCN(C(=O)c3cccc(CN4CCN(C)CC4)c3)[C@H]12.Cl.Cl` (relative stereo) [Example 189, rel-(3R,3aR,6aS)-3-Isopropyl-1-methanesulfonyl-4-[3-(4-methyl-piperazin-1-ylmethyl)-benzoyl]-hexahydro-pyrrolo[3,2-b]pyrrol-2-one dihydrochloride], the pIC50 in assay [1] is 7.21. For the same compound, in the assay with Intracellular elastase, the duration of effect entry is “at least 6 hours”.
